# Measurements reported in US20180072997A1, “INHIBITORS OF HUMAN IMMUNODEFICIENCY VIRUS REPLICATION” (ViiV HEATHCARE UK (NO.5) LIMITED, priority 2015, published 2018).
# Key:
# [1] = Compound cytotoxicity, XTT-based colorimetric assay; type: cell-based; settings: human, uninfected MT2 cells, day 4, XTT
# Experimental: Compound cytotoxicity and the corresponding CC50 values were determined using the same protocol as described in the antiviral assay except that uninfected cells were used. Cytotoxicity was assessed on day 4 in uninfected MT2 cells by using a XTT (2,3-bis[2-Methoxy-4-nitro-5-sulfophenyl]-2H-tetrazolium-5-carboxyanilide inner salt)-based colorimetric assay (Sigma-Aldrich, St Louis, Mo.).
# [2] = test system: recombinant NL4-3 virus (Renilla luciferase in nef) in MT-2 cells; assay: whole plant or invertebrate; type: cell-based, HIV; settings: Renilla, NL43, MT-2 cells infected for 4-5 days with recombinant NL4-3 Renilla luciferase virus; luciferase activity
# Experimental: HIV cell culture assay—MT-2 cells, 293T cells and the proviral DNA clone of NL4-3 virus were obtained from the NIH AIDS Research and Reference Reagent Program. MT-2 cells were propagated in RPMI 1640 media supplemented with 10% heat inactivated fetal bovine serum (FBS), 100 μg/ml penicillin G and up to 100 units/mL streptomycin. The 293T cells were propagated in DMEM media supplemented with 10% heat inactivated FBS, 100 μg/mL penicillin G and 100 μg/mL streptomycin. A recombinant NL4-3 proviral clone, in which a section of the nef gene was replaced with the Renilla luciferase gene, was used to make the reference virus used in these studies. The recombinant virus was prepared through transfection of the recombinant NL4-3 proviral clone into 293T cells using Transit-293 Transfection Reagent from Mirus Bio LLC (Madison, Wis.). Supernatent was harvested after 2-3 days and the amount of virus present was titered in MT-2 cells using luciferase enzyme activity as a marker by measuring luciferase enzyme activity. Luciferase was quantitated using the EnduRen Live Cell Substrate from Promega (Madison, Wis.). Antiviral activities of compounds toward the recombinant virus were quantified by measuring luciferase activity in MT-2 cells infected for 4-5 days with the recombinant virus in the presence of serial dilutions of the compound.
# (Johnson V A, Byington R T. Infectivity Assay. In Techniques in HIV Research. ed. Aldovini A, Walker BD. 71-76. New York: Stockton Press.1990).
structure (smiles),measurement,setting,value
COc1ccc(N(CCF)C(=O)[C@H](Cc2cc(F)cc(F)c2)NC(=O)Cn2c(=O)n(CC(=O)N[C@@H](Cc3cc(F)cc(F)c3)C(=O)N(CCF)c3ccc(OC)cc3)c3ccccc32)cc1 [Example 125],CC50 at 4 days,[1],≥ 100 µM
same,EC50,[2],340 nM
CCN(C(=O)[C@H](Cc1cc(F)cc(F)c1)NC(=O)NS(=O)(=O)N[C@@H](Cc1cc(F)cc(F)c1)C(=O)N(CC)c1ccc2scnc2c1)c1ccc2scnc2c1 [Example 152],CC50 at 4 days,[1],99.3 µM
same,EC50,[2],60 nM
COc1ccc(N(C)C(=O)[C@H](Cc2cc(F)cc(F)c2)NC(=O)NS(=O)(=O)N[C@@H](Cc2cc(F)cc(F)c2)C(=O)N(C)c2ccc(OC)c(F)c2)cc1F [Example 233],CC50 at 4 days,[1],35.8 µM
same,EC50,[2],30 nM
COc1ccc(N(C)C(=O)[C@H](Cc2ccccc2)NC(=O)c2cncc(C(=O)N[C@@H](Cc3ccccc3)C(=O)N(C)c3ccc(OC)cc3)c2)cc1 [Example 99],CC50 at 4 days,[1],1.8 µM
same,EC50,[2],20 nM
C=CCCN(C(=O)[C@H](Cc1ccccc1)NC(=O)NS(=O)(=O)N[C@@H](Cc1ccccc1)C(=O)N(CC=C)c1ccc(OC)nc1)c1ccc(OC)nc1 [Example 223],CC50 at 4 days,[1],≥ 25 µM
same,EC50,[2],1500 nM
CCCN(C(=O)[C@H](Cc1cc(F)cc(F)c1)NC(=O)NS(=O)(=O)N[C@@H](Cc1cc(F)cc(F)c1)C(=O)N(CCC)c1ccc2nccnc2c1)c1ccc2nccnc2c1 [Example 204],CC50 at 4 days,[1],≥ 33.3 µM
same,EC50,[2],15000 nM
COc1ccc(N(C)C(=O)[C@H](Cc2cc(F)cc(F)c2)NC(=O)Cn2c(=O)n(CC(=O)N[C@@H](Cc3cc(F)cc(F)c3)C(=O)N(C)c3ccc(OC)cc3)c3cc(OC)ccc32)cc1 [Example 84],CC50 at 4 days,[1],6.9 µM
same,EC50,[2],40 nM
CN(C(=O)[C@H](Cc1ccccc1)NC(=O)c1ccnc(N[C@@H](Cc2ccccc2)C(=O)N(C)c2ccc3scnc3c2)n1)c1ccc2scnc2c1 [Example 154],CC50 at 4 days,[1],≥ 100 µM
same,EC50,[2],1860 nM
CN(C(=O)[C@H](Cc1cc(F)cc(F)c1)NC(=O)NS(=O)(=O)N[C@@H](Cc1cc(F)cc(F)c1)C(=O)N(C)c1ccc(C(F)(F)F)nc1)c1ccc(C(F)(F)F)nc1 [Example 199],CC50 at 4 days,[1],46.7 µM
same,EC50,[2],470 nM
COc1ccc(N(C)C(=O)[C@H](Cc2ccccc2)NC(=O)[C@H](Cc2ccccc2)NC(=O)N[C@@H](Cc2ccccc2)C(=O)N[C@@H](Cc2ccccc2)C(=O)N(C)c2ccc(OC)cc2)cc1 [Example 62],CC50 at 4 days,[1],≥ 100 µM
same,EC50,[2],490 nM
COc1ccc(N(C)C(=O)[C@H](Cc2ccccc2)NC(=O)c2ccc(F)c(C(=O)N[C@@H](Cc3ccccc3)C(=O)N(C)c3ccc(OC)cc3)c2)cc1 [Example 106],CC50 at 4 days,[1],6.3 µM
same,EC50,[2],50 nM
CCc1ncc(N(C)C(=O)[C@H](Cc2cc(F)cc(F)c2)NC(=O)NS(=O)(=O)N[C@@H](Cc2cc(F)cc(F)c2)C(=O)N(C)c2cnc(CC)nc2)cn1 [Example 208],CC50 at 4 days,[1],37.7 µM
same,EC50,[2],16000 nM
CN(C(=O)[C@H](Cc1cc(F)cc(F)c1)NC(=O)NS(=O)(=O)N[C@@H](Cc1cc(F)cc(F)c1)C(=O)N(C)c1cccnc1)c1cccnc1 [Example 236],CC50 at 4 days,[1],≥ 100 µM
same,EC50,[2],4140 nM
COc1ccc(N(C)C(=O)[C@H](Cc2cc(F)cc(F)c2)NC(=O)c2cc(F)c(F)cc2C(=O)N[C@@H](Cc2cc(F)cc(F)c2)C(=O)N(C)c2ccc(OC)cc2)cc1 [Example 254],CC50 at 4 days,[1],10 µM
same,EC50,[2],90 nM
CN(C(=O)[C@H](Cc1cc(F)cc(F)c1)NC(=O)NS(=O)(=O)N[C@@H](Cc1cc(F)cc(F)c1)C(=O)N(C)c1ccc(N2CCOCC2)cc1)c1ccc(N2CCOCC2)cc1 [Example 183],CC50 at 4 days,[1],78.9 µM
same,EC50,[2],90 nM
COc1ccc(N(C)C(=O)[C@H](Cc2ccccc2)NC(=O)NS(=O)(=O)N[C@@H](Cc2ccccc2)C(=O)N(C)c2ccc3c(c2)OCO3)cc1 [Example 14],CC50 at 4 days,[1],≥ 50 µM
same,EC50,[2],80 nM
COc1ccc(N(C)C(=O)[C@H](Cc2ccccc2)NC(=O)CCSCCC(=O)N[C@@H](Cc2ccccc2)C(=O)N(C)c2ccc(OC)cc2)cc1 [Example 41],CC50 at 4 days,[1],23 µM
same,EC50,[2],100 nM
C=CCN(C(=O)[C@H](Cc1cc(F)cc(F)c1)NC(=O)c1nccnc1C(=O)N[C@@H](Cc1cc(F)cc(F)c1)C(=O)N(CC=C)c1ccc(OC)cc1)c1ccc(OC)cc1 [Example 212],CC50 at 4 days,[1],≥ 100 µM
same,EC50,[2],3730 nM
COc1ccc(N(C)C(=O)[C@H](Cc2cc(F)cc(F)c2)NC(=O)c2ccc(F)c(C(=O)N[C@@H](Cc3cc(F)cc(F)c3)C(=O)N(C)c3ccc(OC)c(F)c3)c2)cc1F [Example 232],CC50 at 4 days,[1],≥ 33.3 µM
same,EC50,[2],180 nM
COc1ccc(N(C)C(=O)[C@H](Cc2cc(F)cc(F)c2)Nc2ccnc(N[C@@H](Cc3cc(F)cc(F)c3)C(=O)N(C)c3ccc(OC)cc3)n2)cc1 [Example 158],CC50 at 4 days,[1],12.4 µM
same,EC50,[2],9530 nM
COc1ccc(N(C)C(=O)[C@H](Cc2ccccc2)NS(=O)(=O)NC(=O)N[C@@H](Cc2ccccc2)C(=O)N(C)c2ccc3scnc3c2)cc1 [Example 35],CC50 at 4 days,[1],99.9 µM
same,EC50,[2],30 nM
C=CCCN(C(=O)[C@H](Cc1cc(F)cc(F)c1)NC(=O)NS(=O)(=O)N[C@@H](Cc1cc(F)cc(F)c1)C(=O)N(CC=C)c1ccc(OC)cc1)c1ccc(OC)cc1 [Example 138],CC50 at 4 days,[1],12.9 µM
same,EC50,[2],260 nM
CCN(C(=O)[C@H](Cc1cc(F)cc(F)c1)NC(=O)CN1c2ccccc2N(CC(=O)N[C@@H](Cc2cc(F)cc(F)c2)C(=O)N(CC)c2ccc3oc(=O)n(Cc4ccccc4)c3c2)S1(=O)=O)c1ccc2oc(=O)n(Cc3ccccc3)c2c1 [Example 153],CC50 at 4 days,[1],3.1 µM
same,EC50,[2],1540 nM
CN(C(=O)[C@H](Cc1ccccc1)NC(=O)NS(=O)(=O)N[C@@H](Cc1ccccc1)C(=O)N(C)c1ccccc1)c1ccccc1 [Example 85],CC50 at 4 days,[1],≥ 100 µM
same,EC50,[2],970 nM
CN(C(=O)[C@H](Cc1cc(F)cc(F)c1)NC(=O)c1ccc(F)c(C(=O)N[C@@H](Cc2cc(F)cc(F)c2)C(=O)N(C)c2ccc3snnc3c2)c1)c1ccc2snnc2c1 [Example 179],CC50 at 4 days,[1],≥ 100 µM
same,EC50,[2],340 nM
C=CCN(C(=O)[C@H](Cc1cc(F)cc(F)c1)NS(=O)(=O)CCCS(=O)(=O)N[C@@H](Cc1cc(F)cc(F)c1)C(=O)N(CC=C)c1ccc(OC)cc1)c1ccc(OC)cc1 [Example 164],CC50 at 4 days,[1],≥ 100 µM
same,EC50,[2],2640 nM
CN(C(=O)[C@H](Cc1cc(F)cc(F)c1)NC(=O)CN1c2ccccc2N(CC(=O)N[C@@H](Cc2cc(F)cc(F)c2)C(=O)N(C)c2ccc3c(c2)ncn3C)S1(=O)=O)c1ccc2c(c1)ncn2C [Example 209],CC50 at 4 days,[1],≥ 100 µM
same,EC50,[2],420 nM
COc1ccc(N(C)C(=O)[C@H](Cc2ccccc2)NC(=O)NS(=O)(=O)N[C@@H](Cc2ccccc2)C(=O)N(C)c2ccc(OC)cc2)cc1 [Example 2],CC50 at 4 days,[1],77.9 µM
same,EC50,[2],30 nM
COc1ccc(N(C)C(=O)[C@H](Cc2ccccc2)NC(=O)CC(C)(C)C(=O)N[C@@H](Cc2ccccc2)C(=O)N(C)c2ccc(OC)cc2)cc1 [Example 30],CC50 at 4 days,[1],31.2 µM
same,EC50,[2],4960 nM
O=C(N[C@@H](Cc1cc(F)cc(F)c1)c1ncccc1Br)NS(=O)(=O)N[C@@H](Cc1cc(F)cc(F)c1)c1ncccc1Br [Example 36],CC50 at 4 days,[1],65.3 µM
same,EC50,[2],7270 nM
CCc1ncc(N(C)C(=O)[C@H](Cc2cc(F)cc(F)c2)NC(=O)c2ccc(F)c(C(=O)N[C@@H](Cc3cc(F)cc(F)c3)C(=O)N(C)c3cnc(CC)nc3)c2)cn1 [Example 206],CC50 at 4 days,[1],≥ 33.3 µM
same,EC50,[2],14400 nM
CN(C(=O)[C@H](Cc1cc(F)cc(F)c1)NC(=O)NS(=O)(=O)N[C@@H](Cc1cc(F)cc(F)c1)C(=O)N(C)c1ccc(C2CC2)nc1)c1ccc(C2CC2)nc1 [Example 181],CC50 at 4 days,[1],85.8 µM
same,EC50,[2],20 nM
CN(C(=O)[C@H](Cc1cc(F)cc(F)c1)NS(=O)(=O)CS(=O)(=O)N[C@@H](Cc1cc(F)cc(F)c1)C(=O)N(C)c1ccc2scnc2c1)c1ccc2scnc2c1 [Example 202],CC50 at 4 days,[1],≥ 100 µM
same,EC50,[2],80 nM
COc1ccc(N(C)C(=O)[C@H](Cc2cc(F)cc(F)c2)NC(=O)CN2c3ccccc3N(CC(=O)N[C@@H](Cc3cc(F)cc(F)c3)C(=O)N(C)c3ccc(OC)nc3)S2(=O)=O)cn1 [Example 197],CC50 at 4 days,[1],9.3 µM
same,EC50,[2],10 nM
CN(C(=O)[C@H](Cc1cc(F)cc(F)c1)Nc1ccnc(N[C@@H](Cc2cc(F)cc(F)c2)C(=O)N(C)c2ccc3scnc3c2)n1)c1ccc2scnc2c1 [Example 146],CC50 at 4 days,[1],30.6 µM
same,EC50,[2],2860 nM
COc1ccc(N(C)C(=O)[C@H](Cc2ccccc2)NC(=O)Cc2cn(CC(=O)N[C@@H](Cc3ccccc3)C(=O)N(C)c3ccc(OC)cc3)c3ccccc23)cc1 [Example 61],CC50 at 4 days,[1],32.6 µM
same,EC50,[2],610 nM
CC#CCN(C(=O)[C@H](Cc1cc(F)cc(F)c1)NC(=O)c1cc(F)c(F)cc1C(=O)N[C@@H](Cc1cc(F)cc(F)c1)C(=O)N(CC#CC)c1ccc(OC)cc1)c1ccc(OC)cc1 [Example 234],CC50 at 4 days,[1],95.3 µM
same,EC50,[2],6830 nM
